From patent US12312370B2, “Immunoproteasome inhibitors” (Principia Biopharma Inc., priority 2017, dated 2025)
pIC50: −log10 of the molar value.

Key:
[1] = biological target: immunoproteasome LMP7/B5i subunit (Homo sapiens, UniProt P28062); test: Caliper-based proteasome enzymatic activity assay, LMP7; assay type: biochemical; conditions: human recombinant immunoproteasome 0.3 nM, FAM-labeled peptide substrate 1 μM, rt 3 h; read-out: LMP7 subunit IC50
[2] = biological target: constitutive proteasome β5c unit (Homo sapiens, UniProt P28074); test: Caliper-based proteasome enzymatic activity assay, β5c; assay type: biochemical; conditions: human recombinant constitutive proteasome 0.3 nM, FAM-labeled peptide substrate 1 μM, rt 3 h; read-out: β5c subunit IC50

Structure (SMILES) | pIC50 [1] | pIC50 [2]
C=CC(=O)N1CCCC(C)(OC(=O)N[C@@H](Cc2ccc(F)cc2)B(O)O)C1 (mixture of isomers) [Example 91, ((1R)-1-((((1-acryloyl-3-methylpiperidin-3-yl)oxy)carbonyl)amino)-2-(4-fluorophenyl)ethyl)boronic acid] | < 5.30 | < 5.30
CC1(OC(=O)N[C@@H](Cc2ccc(F)cc2)B(O)O)CCCN(C(=O)C(C#N)=CC(C)(C)N2CCC(F)(F)C2)C1 (mixture of isomers) [Example 94, ((1R)-1-((((1-(2-cyano-4-(3,3-difluoropyrrolidin-1-yl)-4-methylpent-2-enoyl)-3-methylpiperidin-3-yl)oxy)carbonyl)amino)-2-(4-fluorophenyl)ethyl)boronic acid] | 6.62 | < 5.30
C=CC(=O)N1CCCC(C)(OC(=O)N[C@@H](Cc2ccccc2)B(O)O)C1 (single isomer, unassigned) [Example 85] | < 5.30 | < 5.30
CC(C)(C=C(C#N)C(=O)N1CCC[C@](C)(OC(=O)N[C@@H](Cc2ccccc2)B(O)O)C1)N1CCC(F)(F)C1 (single isomer, unassigned) [Example 92] | 7.37 | < 5.30
CC(C)(C=C(C#N)C(=O)N1CCC[C@@](C)(OC(=O)N[C@@H](Cc2ccccc2)B(O)O)C1)N1CCC(F)(F)C1 (single isomer, unassigned) [Example 93] | 6.19 | < 5.30
CC(C)(C=C(C#N)C(=O)N1CCCC[C@@H](OC(=O)N[C@@H](Cc2ccccc2)B(O)O)C1)N1CCOCC1 (single isomer, unassigned) [Example 103] | 8.66 | 5.50
CC(C)(C=C(C#N)C(=O)N1CCCC[C@H](OC(=O)N[C@@H](Cc2ccccc2)B(O)O)C1)N1CCOCC1 (single isomer, unassigned) [Example 104] | 8.62 | < 5.30
CC(C)(C=C(C#N)C(=O)N1CCCC[C@@H](OC(=O)N[C@@H](Cc2ccccc2)B(O)O)C1)N1CCC(F)(F)C1 (single isomer, unassigned) [Example 105] | 8.80 | 5.87
CC(C)C=C(C#N)C(=O)NCCCC[C@H](NC(=O)[C@H](C)NC(=O)C(C)C)C(=O)N[C@@H](CC(C)C)B(O)O [Example 1, ((R)-1-((S)-6-(2-cyano-4-methylpent-2-enamido)-2-((S)-2-isobutyramidopropanamido)hexanamido)-3-methylbutyl)boronic acid] | 7.68 | 7.92
CC(C)C=C(C#N)C(=O)NCCCC[C@H](NC(=O)c1cc(Cl)ccc1Cl)C(=O)N[C@@H](CC(C)C)B(O)O [Example 3, ((R)-1-((S)-6-(2-cyano-4-methylpent-2-enamido)-2-(2,5-dichlorobenzamido)hexanamido)-3-methylbutyl)boronic acid] | 7.53 | 8.07
CC(C)C=C(C#N)C(=O)NCCCC[C@H](NC(=O)[C@H](C)NC(=O)C(C)C)C(=O)N[C@@H](Cc1ccccc1)B(O)O [Example 4, ((R)-1-((S)-6-(2-cyano-4-methylpent-2-enamido)-2-((S)-2-isobutyramidopropanamido)hexanamido)-2-phenylethyl)boronic acid] | 7.85 | 7.63
CC(C)C=C(C#N)C(=O)NCCCC[C@H](NC(=O)c1cccc(O)n1)C(=O)N[C@@H](CC(C)C)B(O)O [Example 7, ((R)-1-((S)-6-(2-cyano-4-methylpent-2-enamido)-2-(6-hydroxypicolinamido)hexanamido)-3-methylbutyl)boronic acid] | 8.89 | 9.00
CC(C)C=C(C#N)C(=O)NCCCC[C@H](NC(=O)[C@@H](NC(=O)C(C)C)[C@@H](C)O)C(=O)N[C@@H](CC(C)C)B(O)O [Example 9, ((R)-1-((S)-6-(2-cyano-4-methylpent-2-enamido)-2-((2S,3R)-3-hydroxy-2-isobutyramidobutanamido)hexanamido)-3-methylbutyl)boronic acid] | 8.09 | 8.03
CC(C)C=C(C#N)C(=O)NCCCC[C@H](NC(=O)[C@@H](NC(=O)C(C)C)[C@@H](C)O)C(=O)N[C@@H](Cc1ccccc1)B(O)O [Example 10, ((R)-1-((S)-6-(2-cyano-4-methylpent-2-enamido)-2-((2S,3R)-3-hydroxy-2-isobutyramidobutanamido)hexanamido)-2-phenylethyl)boronic acid] | 8.18 | 7.83
CC(C)C=C(C#N)C(=O)NCCCC[C@H](NS(C)(=O)=O)C(=O)N[C@@H](Cc1ccccc1)B(O)O [Example 12, ((R)-1-((S)-6-(2-cyano-4-methylpent-2-enamido)-2-(methylsulfonamido)hexanamido)-2-phenylethyl)boronic acid] | 7.87 | 7.68
C=CS(=O)(=O)N(C)c1cccc(C[C@H](NC(=O)c2cc(Cl)ccc2Cl)C(=O)N[C@@H](Cc2ccccc2)B(O)O)c1 [Example 16, ((R)-1-((S)-2-(2,5-dichlorobenzamido)-3-(3-(N-methylvinylsulfonamido)phenyl)propanamido)-2-phenylethyl)boronic acid] | 8.37 | 8.48
Cc1ccncc1C(=O)N[C@@H](CCCCNC(=O)C(C#N)=CC(C)C)C(=O)N[C@@H](Cc1ccccc1)B(O)O [Example 17, ((R)-1-((S)-6-(2-cyano-4-methylpent-2-enamido)-2-(4-methylnicotinamido)hexanamido)-2-phenylethyl)boronic acid] | 8.19 | 7.96
CC#CC(=O)N(C)c1cccc(C[C@H](NC(=O)c2cc(Cl)ccc2Cl)C(=O)N[C@@H](Cc2ccccc2)B(O)O)c1 [Example 18, ((R)-1-((S)-2-(2,5-dichlorobenzamido)-3-(3-(N-methylbut-2-ynamido)phenyl)propanamido)-2-phenylethyl)boronic acid] | 8.14 | 8.00
CC(C)C=C(C#N)C(=O)N1CCC[C@@H]1COC[C@H](NC(=O)c1cc(Cl)ccc1Cl)C(=O)N[C@@H](Cc1ccccc1)[B-]12OC(=O)C[N+]1(C)CC(=O)O2 (stereo partly drawn) [Example 19, 8-((R)-1-((S)-3-(((R)-1-(2-cyano-4-methylpent-2-enoyl)pyrrolidin-2-yl)methoxy)-2-(2,5-dichlorobenzamido)propanamido)-2-phenylethyl)-4-methyl-2,6-dioxohexahydro-[1,3,2]oxazaborolo[2,3-b][1,3,2]oxazaborol-4-ium-8-uide] | 8.02 | 7.81
CC(C)C=C(C#N)C(=O)N1CCC[C@@H]1COC[C@H](NCC(F)(F)F)C(=O)N[C@@H](Cc1ccccc1)B(O)O [Example 23, (R)-1-((S)-3-(((R)-1-(2-cyano-4-methylpent-2-enoyl)pyrrolidin-2-yl)methoxy)-2-(2,2,2-trifluoroethylamino)propanamido)-2-phenylethylboronic acid] | 7.46 | 6.35
CC(C)(C)C=C(C#N)C(=O)N1CCC[C@@H]1COC[C@H](NCC(F)(F)F)C(=O)N[C@@H](Cc1ccccc1)B(O)O [Example 24, (R)-1-((S)-3-(((R)-1-(2-cyano-4,4-dimethylpent-2-enoyl)pyrrolidin-2-yl)methoxy)-2-(2,2,2-trifluoroethylamino)propanamido)-2-phenylethylboronic acid] | 7.59 | 6.78
CC(C)C=C(C#N)C(=O)N(C)c1cccc(C[C@H](NCC(F)(F)F)C(=O)N[C@@H](Cc2ccccc2)B(O)O)c1 [Example 26, ((R)-1-((S)-3-(3-(2-cyano-N,4-dimethylpent-2-enamido)phenyl)-2-((2,2,2-trifluoroethyl)amino)propanamido)-2-phenylethyl)boronic acid] | 7.96 | 6.44
CC(C)C=C(C#N)C(=O)N(C)c1cccc(C[C@H](NCC(F)(F)F)C(=O)N[C@@H](CC(C)C)B(O)O)c1 [Example 27, ((R)-1-((S)-3-(3-(2-cyano-N,4-dimethylpent-2-enamido)phenyl)-2-((2,2,2-trifluoroethyl)amino)propanamido)-3-methylbutyl)boronic acid] | 7.14 | 6.76
CC(C)C=C(C#N)C(=O)N1CCC[C@@H]1COC[C@H](NCC(F)(F)F)C(=O)N[C@@H](CC(C)C)B(O)O [Example 28] | 7.34 | 6.53
CCc1cccc(C[C@H](NC(=O)[C@H](COC[C@H]2CCCN2C(=O)C(C#N)=CC(C)C)NCC(F)(F)F)B(O)O)c1 [Example 30, ((R)-1-((S)-3-(((R)-1-(2-cyano-4-methylpent-2-enoyl)pyrrolidin-2-yl)methoxy)-2-((2,2,2-trifluoroethyl)amino)propanamido)-2-(3-ethylphenyl)ethyl)boronic acid] | 7.06 | 5.74
CC(C)C=C(C#N)C(=O)N1CCC[C@@H]1COC[C@H](NCC(F)(F)F)C(=O)N[C@@H](Cc1coc2ccccc12)B(O)O [Example 31, ((R)-2-(benzofuran-3-yl)-1-((S)-3-(((R)-1-(2-cyano-4-methylpent-2-enoyl)pyrrolidin-2-yl)methoxy)-2-((2,2,2-trifluoroethyl)amino)propanamido)ethyl)boronic acid] | 7.94 | 7.40
CC(C)(C=C(C#N)C(=O)N1CCC[C@@H]1CNC(=O)N[C@@H](Cc1coc2ccccc12)B(O)O)N1CCC(F)(F)CC1 [Example 49, ((R)-2-(benzofuran-3-yl)-1-(3-(((R)-1-(2-cyano-4-(4,4-difluoropiperidin-1-yl)-4-methylpent-2-enoyl)pyrrolidin-2-yl)methyl)ureido)ethyl)boronic acid] | 8.28 | 5.74
CC(C)(C=C(C#N)C(=O)N1CCC[C@@H]1CNC(=O)N[C@@H](Cc1coc2ccccc12)B(O)O)N1CCC(F)(F)C1 [Example 50, ((R)-2-(benzofuran-3-yl)-1-(3-(((R)-1-(2-cyano-4-(3,3-difluoropyrrolidin-1-yl)-4-methylpent-2-enoyl)pyrrolidin-2-yl)methyl)ureido)ethyl)boronic acid] | 8.40 | 5.92
